Reference: patent US20260199282A1, “METHODS AND COMPOSITIONS FOR IMPROVING DRIVING PERFORMANCE” (priority 2022, published 2026)
“And” between values parts separate entries of the source, which are not always exact repeats. Equal entries are not always repeated.

What was measured:
[1] = system: participants with narcolepsy; details: 12 weeks; 75 to 300 mg/day; cited from earlier work
[2] = system: participants with narcolepsy; assay: Actual task effectiveness from PVT inverse reaction time, narcolepsy; format: in vivo, human; details: narcolepsy n=20
Method: Actual task effectiveness scores were calculated based on each participant's inverse reaction time (IRT [1/RT]) as described below. Sleep intervals derived from participants' actigraphy data—or from sleep diaries, if available, where actigraphy data were missing—were used to calculate modeled healthy control task effectiveness scores using the SAFTE. Participants evidenced good sleep hygiene, with minimal missing data. Task effectiveness was not modeled for participants missing data from the night before PVT testing. A SAFTE model effectiveness score of 100 indicates typical best performance during the day, based on a normal healthy population. SAFTE-FAST effectiveness predictions have been validated against IRT on the PVT [22].
Actual effectiveness scores were calculated as a percentage of a theoretical “best performance” from participants' average IRT per PVT trial (for all PVT test sessions, actual effectiveness=IRT/3.96×100). Average speed (IRT) on a PVT under optimal conditions—healthy sleepers taking the test at 11:00 in the morning, following an 8-hour sleep opportunity—is approximately 3.96 [40], and is assumed to represent an actual effectiveness score of 100 (a healthy participant's typical best performance). Repeated-measures analysis of variance (ANOVA) was used to estimate the effect of treatment on actual effectiveness over time.

[3] = system: subjects with EDS due to OSA; parameters: species or system human; details: in vivo
[4] = system: participants with narcolepsy; assay: Standardized on-road driving test, narcolepsy study; format: in vivo, human; details: for SDLP, observed mean (SD) / SDLP, median / SDLP, median difference (range), solriamfetol - placebo: day 7, 300 mg/day; for SDLP, median / SDLP, median difference (range), solriamfetol - placebo: mITT
Method: In this randomized, double-blind, placebo-controlled, crossover study, driving performance during a 1-hour on-road driving test was assessed at 2 hours and 6 hours post-dose following 7 days of treatment with solriamfetol (150 mg/day for 3 days, followed by 300 mg/day for 4 days) or placebo. The primary endpoint was standard deviation of lateral position (SDLP) at 2 hours post-dose.
At the end of each treatment period, a standardized on-road driving test (Verster & Roth, 2011) was conducted at 2 hours and at 6 hours after administration of drug or placebo (FIG. 1A). For each test (~1 hour in duration), participants drove a specially instrumented vehicle over a 100 km (~62 miles) primary highway circuit; they were accompanied by a licensed driving instructor with access to dual controls (brakes, clutch, accelerator). Participants were instructed to maintain both a steady lateral position between the delineated boundaries of the slower (right) traffic lane and a constant speed of 95 km/h (~59 mph). Participants were permitted to deviate from these instructions only to pass a slower vehicle, to respond to slower traffic ahead, or to exit and reenter the highway at the turnaround point (these events were removed for the purpose of data analysis by 2 experienced editors of the driving data). Vehicle speed and lateral distance to the left-lane line were continuously recorded, and the data stored on an onboard computer. The driving test could be stopped by the participant or by the accompanying driving instructor if considered it unsafe to continue.
The primary outcome assessment from the driving tests was standard deviation of lateral position (SDLP) in centimeters—a measure of “weaving” or road-tracking control (Ramaekers, 2017; Verster & Roth, 2011). […] Standard deviation of speed and number of lane drifts (defined as deviations>100 cm from the absolute lateral position within an 8-second window) were also determined from driving test data.
Change in SDLP was analyzed with a repeated mixed-effects analysis of variance (ANOVA).
Maximally selected McNemar symmetry analyses (Laska, Meisner, & Wanderling, 2012) were used to detect asymmetry in the distribution of the change in driving performance at 2 hours and 6 hours post-dose. Single McNemar tests were used to analyze the difference in proportions of participants with improved or impaired driving performance at relevant thresholds. Thresholds of 1.0, 1.5, 2.0, 2.5, 3.0, and 3.5 cm were used.
(§1) Additional secondary efficacy measures (standard deviation of speed, number of lane drifts, and THAT scores) were analyzed using a similar ANOVA method as described for SDLP. No multiplicity adjustments were made in the efficacy analyses for multiple endpoints, and all p values are therefore nominal.

[5] = system: subjects with EDS due to OSA; assay: Safety / adverse events, OSA study; format: in vivo, human
Method: The incidence of treatment-emergent adverse events was summarized by treatment. Descriptive statistics were presented for vital sign results. No formal statistical testing was performed for the safety analyses.
The use of vital signs, clinical laboratory tests, standard AE reporting, and the questionnaires that were selected to assess the safety of the study drug were appropriate since they are routinely used to assess the safety profile of drugs in clinical studies and pertinent to known risks of solriamfetol. The C-SSRS is able to determine clinically meaningful points at which a person may be at risk for an impending suicide attempt (Posner 2011).

[6] = system: participants with narcolepsy; assay: Toronto Hospital Alertness Test (THAT), narcolepsy study; format: in vivo, human; details: end of 7-day treatment period
Method: The Toronto Hospital Alertness Test (THAT) is a 10-item self-report questionnaire that measures perceived alertness over the previous week; scores can range from 0 to 50, with higher scores indicating greater alertness (Shapiro et al., 2006). This assessment was administered at the end of each 7-day treatment period to evaluate participants' perceived alertness throughout the treatment period.
as §1

[7] = system: participants with narcolepsy; parameters: species or system human; details: in vivo
[8] = system: participants with narcolepsy; details: 12 weeks; 75 to 300 mg/day; cited from earlier work; remark: listed apart in the source

For `NC(=O)OC[C@H](N)Cc1ccccc1` [Solriamfetol, (R)-2-amino-3-phenylpropyl carbamate], the “Maintenance of Wakefulness Test, treatment difference from placebo (least squares mean)” value [1] is listed as 2.6 to 10.1 min, the “Actual task effectiveness, LS mean (SE)” value ([2]; 2 hours post-dose) is listed as 96.07 (1.65) and the “Actual task effectiveness, LS mean difference” value ([2]; 2 hours post-dose) is listed as 10.41. The “Actual task effectiveness, LS mean (SE)” value ([2]; 6 hours post-dose) was 93.89 (1.65), the “Actual task effectiveness, LS mean difference” value ([2]; 6 hours post-dose) was 7.60 and the “Actual task effectiveness, LS mean (SE)” value ([2]; pre-dose) was 86.06 (1.65). For the same compound, the “Actual task effectiveness, LS mean difference” value ([2]; pre-dose) was −6.16, the “PVT errors, LS mean (SE)” value [3] was 1.24 (0.58) n/trial and 1.84 (0.58) n/trial and the “PVT inverse reaction time, LS mean (SE)” value [3] was 3.53 (0.04) 1/ms and 3.64 (0.04) 1/ms and 3.71 (0.04) 1/ms. For the same compound, the “PVT lapses, LS mean (SE)” value [3] was 3.82 (0.90) n/trial and 3.02 (0.90) n/trial and 3.98 (0.90) n/trial, the “maximum McNemar test, improved vs impaired driving” value ([4]; 2 hours and 6 hours post-dose, thresholds 1.0 to 3.5 cm) was “did not show asymmetry” and the “number of lane drifts, LS mean (SE)” value ([4]; 2 hours post-dose) was 2.3 (0.8). For the same compound, the “number of lane drifts, LS mean difference vs placebo” value ([4]; 2 hours post-dose) was −0.98, the “standard deviation of speed, LS mean (SE)” value ([4]; 2 hours post-dose) was 2.8 (0.2) km/h and the “standard deviation of speed, LS mean difference vs placebo” value ([4]; 2 hours post-dose) was −0.22 km/h. For the same compound, the “SDLP, observed mean (SD)” value ([4]; 2 hours post-dose) was 19.0 (3.6) cm and 18.97 cm, the “SDLP, median” value ([4]; 2 hours post-dose) was 19.08 cm and the “SDLP, median difference (range), solriamfetol - placebo” value (“SDLP, median difference (range)” for short) ([4]; 2 hours post-dose) was −1.9 (−6.7 to 2.6) cm. For the same compound, the “SDLP, median difference (range)” value ([4]; 2 hours post-dose, listed as solriamfetol) was −1.9 cm and −1.90 cm, the “participants with incomplete driving tests” value ([4]; 2 hours post-dose, on solriamfetol) was “Four” and the “number of lane drifts, LS mean (SE)” value ([4]; 6 hours post-dose) was 3.6 (0.8). For the same compound, the “number of lane drifts, LS mean difference vs placebo” value ([4]; 6 hours post-dose) was −0.08, the “standard deviation of speed, LS mean (SE)” value ([4]; 6 hours post-dose) was 3.1 (0.2) km/h and the “standard deviation of speed, LS mean difference vs placebo” value ([4]; 6 hours post-dose) was −0.11 km/h. For the same compound, the “SDLP, observed mean (SD)” value ([4]; 6 hours post-dose) was 19.8 (3.5) cm, the “SDLP, median” value ([4]; 6 hours post-dose) was 19.59 cm and the “SDLP, median difference (range)” value ([4]; 6 hours post-dose) was −1.1 (−12.1 to 6.0) cm. The “SDLP, median difference (range)” value ([4]; 6 hours post-dose, listed as solriamfetol) was −1.1 cm, the “participants with incomplete driving tests” value ([4]; 6 hours post-dose, on solriamfetol) was “Three” and the driving tests stopped ([4]; on solriamfetol, 7/44 tests) was 16%. For the same compound, the “participants with ≥1 incomplete test” value ([4]; while on solriamfetol, either time point) was 5, the “subjects with TEAE considered related to study treatment” value ([5]; after receiving solriamfetol) was 35.3% and the “serious or fatal TEAEs” value ([5]; in vivo) was “no serious nor fatal TEAEs”. The “subjects with TEAE related or suspected related to study drug, n (%)” value ([5]; received solriamfetol) was 12 (35.3%), the “subjects experiencing TEAEs, n (%)” value ([5]; receiving solriamfetol) was 17 (50.0%) and the “THAT score, LS mean (SE)” value [6] was 34.0 (1.4). For the same compound, the “THAT score, LS mean difference solriamfetol vs placebo” value [6] was 7.1, the “PVT errors, LS mean (SE)” value [7] was 1.11 (0.42) n/trial and 1.39 (0.42) n/trial and 1.34 (0.32) n/trial and the “PVT inverse reaction time, LS mean (SE)” value [7] was 3.41 (0.07) 1/ms and 3.80 (0.07) 1/ms and 3.72 (0.07) 1/ms. The “PVT lapses, LS mean (SE)” value [7] was 6.63 (1.61) n/trial and 3.35 (1.61) n/trial and 4.52 (1.61) n/trial, the “PVT mean reaction time, LS mean (SE)” value [7] was 582 (148.4) ms and 317 (148.4) ms and 319 (148.4) ms and the “Epworth Sleepiness Scale, treatment difference from placebo (least squares mean)” value [8] was −2.2 to −4.7 points.
